Values quoted from earlier work as cited in US9199980B2, “Compounds” (CHIESI FARMACEUTICI S.p.A., priority 2012, dated 2015).

How the values were obtained:
[1] = system: smoking model of COPD in mice
[2] = patients with severe disease, frequent exacerbations and mucus hypersecretion

O=C(Nc1c(Cl)cncc1Cl)c1ccc(OC(F)F)c(OCC2CC2)c1 [roflumilast]
effect on lung inflammation and emphysema [1]: inhibits lung inflammation and emphysema | reduction of the numbers of neutrophils in sputum (COPD patients; COPD patients, oral, given over 4 weeks): 36% | improvement of FEV 1 (COPD patients; [2]): approximately 50 ml | reduction of exacerbation (COPD patients; [2]): about 15%
